This note sets out measurements from US7205403B2, “8-Heteroaryl xanthine adenosine A2B receptor antagonists” (King Pharmaceuticals Research and Development, Inc., priority 2002, dated 2007).

Experiment [1] addresses T1, human A2B adenosine receptor (Homo sapiens, UniProt P29275).
T1 sequence (P29275 1-332): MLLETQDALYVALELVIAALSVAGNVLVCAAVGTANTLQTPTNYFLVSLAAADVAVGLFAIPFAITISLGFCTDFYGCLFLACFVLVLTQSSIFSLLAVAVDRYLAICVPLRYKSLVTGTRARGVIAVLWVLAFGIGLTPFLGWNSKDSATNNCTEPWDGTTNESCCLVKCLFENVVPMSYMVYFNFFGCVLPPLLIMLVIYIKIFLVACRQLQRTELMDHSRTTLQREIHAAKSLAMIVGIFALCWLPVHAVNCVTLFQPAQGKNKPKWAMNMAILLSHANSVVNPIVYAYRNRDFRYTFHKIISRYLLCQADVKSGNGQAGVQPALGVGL
Description: [3H]DPCPX binding to human A2B receptors expressed in HEK293 cells. More on the design: host or cells: HEK 293 cells (membranes). To be noted: geometric mean (95% confidence interval); >1000 = no appreciable binding; read-out: Ki, [3H]DPCPX binding to human A2B receptors expressed in HEK293 cells. As to the method:
HEK 293 cells transfected with the human recombinant A2B adenosine receptor were obtained from Receptor Biology, Inc. (Beltsville, Md. USA).
Binding of 1 [^3H]-DPCPX to HEK 293 cells transfected with the human recombinant A2B adenosine receptors was performed according to the method described by Varani et al., 2000. In particular, assays were carried out for 60 minutes at 25° C. in 100 μl of […] Tris HCl buffer, […] MgCl2, 1 mM EDTA, 0.1 mM benzamidine pH 7.4, 2 IU/ml adenosine deaminase containing 40 nM [^3H]-DPCPX, diluted membranes (20 μg of protein/assay) and at least 6–8 different concentration of tested compounds.
(§1) The filter bound radioactivity was counted on Top Count (efficiency 57%) with Micro-Scint 20.
(§2) The filter bound radioactivity was counted on a Top Count brand Microplate Scintillation Counter (efficiency 57%) with Micro-Scint 20. […] Inhibitory binding constant. […] Results and Discussion

In experiment [2] the target is T2, human A1 adenosine receptor (Homo sapiens, UniProt P30542).
T2 construct: expressed in transfected cells; host or cells: CHO cells (membranes)
T2 sequence (P30542 1-326): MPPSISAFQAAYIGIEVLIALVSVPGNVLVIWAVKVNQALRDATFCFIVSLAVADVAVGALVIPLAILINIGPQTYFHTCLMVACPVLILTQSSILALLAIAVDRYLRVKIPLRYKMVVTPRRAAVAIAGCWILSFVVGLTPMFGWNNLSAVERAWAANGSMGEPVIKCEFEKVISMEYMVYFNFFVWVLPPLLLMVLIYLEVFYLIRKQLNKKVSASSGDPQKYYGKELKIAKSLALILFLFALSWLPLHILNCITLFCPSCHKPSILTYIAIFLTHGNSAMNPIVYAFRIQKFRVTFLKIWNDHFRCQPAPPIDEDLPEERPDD
Description: [3H]DPCPX binding to human A1 receptors expressed in CHO cells. As for the experimental part: (§3) The cells were grown adherently and maintained in Dulbecco's modified Eagle's medium with nutrient mixture F12 without nucleosides at 37° C. in 5% CO2/95% air. The cells were washed with phosphate-buffered saline and scraped off flasks in ice cold hypotonic buffer ([…] Tris HCl, 2 mM EDTA, pH 7.4). The cell suspension was homogenized with a Polytron and the homogenate was centrifuged for 30 minutes at 48,000 g. The resultant membrane pellet was re-suspended in 50 mM Tris HCl buffer at pH 7.4 for A1 adenosine receptors; in 50 mM Tris HCl 10 mM MgCl, at pH 7.4 for A2A adenosine receptors; in 50 mM Tris HCl, 10 mM MgCl2, 1 mM EDTA, at pH 7.4 for A3 adenosine receptors and were utilized for binding assays.
Displacement experiments were performed for 120 minutes at 25° C. in 200 μl of buffer containing 1 nM ^3H]-DPCPX 20 μl of diluted membranes (50 μg of protein/assay) and at least 6 to 8 different concentrations of examined compounds.
as §1, §2

Experiment [3] addresses T3, human A2A adenosine receptor (Homo sapiens, UniProt P29274).
T3 construct: expressed in transfected cells; host or cells: CHO cells (membranes)
Description: [3H]ZM241385 binding to human A2A receptors expressed in CHO cells. The conditions noted are these: for Ki: read-out: Ki, [3H]ZM241385 binding to human A2A receptors expressed in CHO cells. As to the method: as §3, §1, §2

The target in experiment [4] is T4, human A3 adenosine receptor (Homo sapiens, UniProt P0DMS8).
T4 construct: expressed in transfected cells; host or cells: CHO cells (membranes)
T4 sequence (P0DMS8 1-318): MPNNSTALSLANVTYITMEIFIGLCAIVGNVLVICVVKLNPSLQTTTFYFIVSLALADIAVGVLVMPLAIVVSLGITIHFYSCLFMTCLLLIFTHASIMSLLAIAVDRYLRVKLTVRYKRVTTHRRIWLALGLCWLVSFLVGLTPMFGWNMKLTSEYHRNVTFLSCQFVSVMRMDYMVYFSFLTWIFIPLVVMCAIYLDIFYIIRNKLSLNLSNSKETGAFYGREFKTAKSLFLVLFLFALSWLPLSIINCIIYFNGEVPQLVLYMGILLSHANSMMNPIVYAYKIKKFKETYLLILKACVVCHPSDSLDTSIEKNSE
Description: [3H]MRE3008F20 binding to human A3 receptors expressed in CHO cells. As to the method:
as §3
Binding of [^3H]-MRE3008-F20 to CHO cells transfected with the human recombinant A3 adenosine receptors was performed according to Varani et al., 2000. Competition experiments were carried out in duplicate in a final volume of 250 μl in test tubes containing 1 nM [^3H]-MRE3008-F20, 50 mM Tris HCl buffer, […] MgCl2, pH 7.4 and 100 μl of diluted membranes (50 μg of protein/assay) and at least 6–8 different concentrations of examined ligands for 120 minutes at 4° C.
as §1, §2

Setting [5] is: geometric mean (95% confidence interval), >1000 = no appreciable binding.

For orientation: Ki means a measure of affinity in units of concentration, obtained from inhibition or displacement.

Read-outs that look alike come from different tables or passages of the source.

T3 sequence (P29274 whole entry): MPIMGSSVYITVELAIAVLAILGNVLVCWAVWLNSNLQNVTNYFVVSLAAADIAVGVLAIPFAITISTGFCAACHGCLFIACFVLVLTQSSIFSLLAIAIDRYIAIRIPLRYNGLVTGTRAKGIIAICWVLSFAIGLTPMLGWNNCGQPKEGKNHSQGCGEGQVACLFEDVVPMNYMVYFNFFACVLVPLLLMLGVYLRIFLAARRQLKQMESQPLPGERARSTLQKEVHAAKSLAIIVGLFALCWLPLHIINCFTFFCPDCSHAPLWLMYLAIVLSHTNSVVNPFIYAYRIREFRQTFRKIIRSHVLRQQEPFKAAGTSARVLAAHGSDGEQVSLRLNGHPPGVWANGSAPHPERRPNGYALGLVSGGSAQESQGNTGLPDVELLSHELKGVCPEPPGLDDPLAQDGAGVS

On to `CCCn1c(=O)c2[nH]c(-c3cc(NC(=O)Cc4cccc(Cl)c4)nn3C)nc2n(CCC)c1=O` [AS24, N-[5-(2,6-dioxo-1,3-dipropyl-2,3,6,9-tetrahydro-1H-purin-8-yl)-1-methyl-1H-pyrazol-3-yl]-2-(3-chlorophenyl)acetamide], for which the Ki in experiment [1] is 160 nM; in experiment [2] (setting [5]), 4480 nM; in experiment [3] it was > 1000 nM; in experiment [4], > 1000 nM.

`CCCn1c(=O)c2[nH]c(-c3cc(NC(=O)Cc4ccc(F)c(F)c4)nn3C)nc2n(CCC)c1=O` [AS43, N-[5-(2,6-dioxo-1,3-dipropyl-2,3,6,9-tetrahydro-1H-purin-8-yl)-1-methyl-1H-pyrazol-3-yl]-2-(3,4-difluorophenyl)acetamide]: the Ki was 130 nM in experiment [1], 1900 nM in experiment [2] (setting [5]), > 1000 nM in experiment [3] and > 1000 nM in experiment [4].

Take `CCCn1c(=O)c2[nH]c(-c3cc(NC(=O)CCCN)nn3C)nc2n(CCC)c1=O` [AS10, 4-{[5-(2,6-dioxo-1,3-dipropyl-2,3,6,7-tetrahydro-1H-purin-8-yl)-1-methyl-1H-pyrazol-3-yl]amino}-4-oxobutan-1-aminium chloride]: the Ki was 2060 nM in experiment [1], 548 nM in experiment [2] (setting [5]), > 1000 nM in experiment [3] and > 1000 nM in experiment [4].

Regarding `CCCn1c(=O)c2[nH]c(-c3cc(NC(=O)Cc4ccc(OCc5ccccc5)c(OC)c4)nn3C)nc2n(CCC)c1=O` [AS56, 2-[4-(benzyloxy)-3-methoxyphenyl]-N-[5-(2,6-dioxo-1,3-dipropyl-2,3,6,9-tetrahydro-1H-purin-8-yl)-1-methyl-1H-pyrazol-3-yl]acetamide], the Ki was 100 nM in experiment [1], 1790 nM in experiment [2], 2430 nM in experiment [3] and > 1000 nM in experiment [4].

For the compound `CCCn1c(=O)c2c(nc(/C=C/c3cc(C(=O)OCC)n(C)c3)n2C)n(CCC)c1=O` [AS33, ethyl 4-[(E)-2-(7-methyl-1,3-dipropyl-2,6-dioxo-2,3,6,7-tetrahydro-1H-purin-8-yl)vinyl]-1-methyl-1H-pyrrole-2-carboxylate], the inhibition constant Ki in experiment [1], in experiment [2], in experiment [3] and in experiment [4] was > 1000 nM each time.

With `CCCn1c(=O)c2[nH]c(-c3ccc(O)nc3)nc2n(CCC)c1=O` [AS103, 1,3-di-n-propyl-8-(2-hydroxypyridin-5-yl)-xanthine], the inhibition constant (Ki) in experiment [1] is 4.9 nM; in experiment [2], 81 nM; in experiment [3] it was 606 nM; in experiment [4], 116 nM.

In the case of `CCCn1c(=O)c2[nH]c(-c3cc(NC(=O)Cc4ccc(C(F)(F)F)cc4)nn3C)nc2n(CCC)c1=O` [AS32, N-[5-(2,6-dioxo-1,3-dipropyl-2,3,6,9-tetrahydro-1H-purin-8-yl)-1-methyl-1H-pyrazol-3-yl]-2-[4-(trifluoromethyl)phenyl]acetamide], the Ki in experiment [1] was 190 nM; in experiment [2] (setting [5]), 746 nM; in experiment [3], > 1000 nM; in experiment [4] it was > 1000 nM.

Consider `CCCn1c(=O)c2[nH]c(-c3cc(OCC(=O)Nc4ccc(C)c(C)c4)nn3C)nc2n(CCC)c1=O` [AS99, 1,3-di-n-propyl-8-{5-[(3,4-dimethyl-phenylcarbamoyl)-methoxy]-2-methyl-2H-pyrazole-3-yl}-xanthine], for which the inhibitory constant (Ki) is 10 nM in experiment [1], 700 nM in experiment [2] (setting [5]), > 1000 nM in experiment [3] and > 1000 nM in experiment [4].

Take `CCCn1c(=O)c2[nH]c(-c3cc(NC(=O)Nc4ccc(N(C)C)cc4)nn3C)nc2n(CCC)c1=O` [AS53, N-[4-(dimethylamino)phenyl]-N'-[5-(2,6-dioxo-1,3-dipropyl-2,3,6,7-tetrahydro-1H-purin-8-yl)-1-methyl-1H-pyrazol-3-yl]urea]: the Ki in experiment [1] is 59 nM; in experiment [2] (setting [5]), 2410 nM; in experiment [3] it was > 1000 nM; in experiment [4], > 1000 nM.

In the case of `CCCn1c(=O)c2[nH]c(-c3cc(N)nn3C)nc2n(CCC)c1=O` [AS3, 8-(3-amino-1-methyl-1H-pyrazol-5-yl)-1,3-dipropyl-3,7-dihydro-1H-purine-2,6-dione], the Ki is 235 nM in experiment [1], 201 nM in experiment [2] (setting [5]), > 1000 nM in experiment [3] and > 1000 nM in experiment [4].

Regarding `CCCn1c(=O)c2[nH]c(-c3cc(OCC(=O)Nc4ccc(C(C)=O)cc4)nn3C)nc2n(CCC)c1=O` [AS69], the Ki in experiment [1] stood at 86 nM. Besides, the “Ki, [3H]DPCPX binding to human A1 receptors expressed in CHO cells” value in experiment [2] (setting [5]) is “without significant binding”. In experiment [3] (setting [5]), the “Ki, [3H]ZM241385 binding to human A2A receptors expressed in CHO cells” value is given as “without significant binding”. In experiment [4] (setting [5]), the “Ki, [3H]MRE3008F20 binding to human A3 receptors expressed in CHO cells” value was “without significant binding”.

As for `CCCn1c(=O)c2[nH]c(-c3cc(NC(=O)Cc4cccc(F)c4)nn3C)nc2n(CCC)c1=O` [AS25, N-[5-(2,6-dioxo-1,3-dipropyl-2,3,6,9-tetrahydro-1H-purin-8-yl)-1-methyl-1H-pyrazol-3-yl]-2-(3-fluorophenyl)acetamide], the Ki in experiment [1] was 50 nM; in experiment [2] (setting [5]) it was 3230 nM; in experiment [3], > 1000 nM; in experiment [4], > 1000 nM.

Consider `CCCn1c(=O)c2[nH]c(-c3cc(NC(=O)COc4ccc(Cl)cc4)nn3C)nc2n(CCC)c1=O` [AS21, 2-(4-chlorophenoxy)-N-[5-(1,3-dipropyl-2,6-dioxo-2,3,6,7-tetrahydro-1H-purin-8-yl)-1-methyl-1H-pyrazol-3-yl]acetamide], for which the inhibition constant Ki in experiment [1], in experiment [2], in experiment [3] and in experiment [4] was > 1000 nM in each case.

With `CCCn1c(=O)c2[nH]c(-c3cc(NC(=O)Nc4ccc(OC)cc4)nn3C)nc2n(CCC)c1=O` [AS49, 1-[5-(2,6-Dioxo-1,3-dipropyl-2,3,6,7-tetrahydro-1H-purin-8-yl)-1-methyl-1H-pyrazol-3-yl]-3-(4-methoxy-phenyl)-urea], the inhibition constant Ki in experiment [1] was 81 nM; in experiment [2] (setting [5]), 1440 nM; in experiment [3], > 1000 nM; in experiment [4], > 1000 nM.
